One assay has as its target IKKε (Homo sapiens (Human), UniProt Q14164). The assay is described as follows: Lanthascreen TR-FRET kinase inhibition assay, IKKε. It counts as biochemical. The note with it: 20 μM ATP (apparent Km), 2 nM kinase, 1 h. In a few lines:
(§1)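 TR-FRET: terbium phosphospecific antibody detects phosphorylation of 400 nM fluorescein-IkBα peptide, 20 μM ATP, 20 °C, HEPES pH 7.5 with 3% DMSO. IKKε at 2 nM, 1 h reaction; TBK1 at 8 nM, 2.5 h reaction; started by kinase addition.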
On the technique in general: Time-resolved FRET reads energy transfer from a long-lived donor to a nearby acceptor.

Another assay deals with TBK1 (Homo sapiens (Human), UniProt Q9UHD2). The assay is described as follows: Lanthascreen TR-FRET kinase inhibition assay, TBK1. It counts as biochemical. The note with it: 20 μM ATP (apparent Km), 8 nM kinase, 2.5 h. In a few lines:
as §1

pIC50: −log10 of the molar value.

Chain of IKKε (Q14164 whole entry): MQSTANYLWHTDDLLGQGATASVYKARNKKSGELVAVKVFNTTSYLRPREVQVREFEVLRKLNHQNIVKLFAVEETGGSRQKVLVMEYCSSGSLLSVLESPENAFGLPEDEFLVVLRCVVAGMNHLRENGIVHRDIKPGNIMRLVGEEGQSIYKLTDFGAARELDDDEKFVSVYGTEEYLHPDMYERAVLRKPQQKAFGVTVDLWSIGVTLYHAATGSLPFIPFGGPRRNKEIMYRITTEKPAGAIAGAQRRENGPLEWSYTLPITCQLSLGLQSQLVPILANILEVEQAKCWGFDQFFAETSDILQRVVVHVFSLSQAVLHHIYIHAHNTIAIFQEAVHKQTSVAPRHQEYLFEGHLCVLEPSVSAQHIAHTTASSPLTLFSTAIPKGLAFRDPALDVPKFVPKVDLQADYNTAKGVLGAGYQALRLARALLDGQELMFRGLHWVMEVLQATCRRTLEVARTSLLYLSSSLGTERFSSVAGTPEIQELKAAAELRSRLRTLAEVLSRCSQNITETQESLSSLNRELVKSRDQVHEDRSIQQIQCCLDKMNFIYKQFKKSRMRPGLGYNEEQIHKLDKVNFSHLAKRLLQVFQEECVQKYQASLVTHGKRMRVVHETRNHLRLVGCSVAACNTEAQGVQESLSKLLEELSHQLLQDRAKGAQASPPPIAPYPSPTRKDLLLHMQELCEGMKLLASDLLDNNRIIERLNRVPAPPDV
Chain of TBK1 (Q9UHD2 whole entry): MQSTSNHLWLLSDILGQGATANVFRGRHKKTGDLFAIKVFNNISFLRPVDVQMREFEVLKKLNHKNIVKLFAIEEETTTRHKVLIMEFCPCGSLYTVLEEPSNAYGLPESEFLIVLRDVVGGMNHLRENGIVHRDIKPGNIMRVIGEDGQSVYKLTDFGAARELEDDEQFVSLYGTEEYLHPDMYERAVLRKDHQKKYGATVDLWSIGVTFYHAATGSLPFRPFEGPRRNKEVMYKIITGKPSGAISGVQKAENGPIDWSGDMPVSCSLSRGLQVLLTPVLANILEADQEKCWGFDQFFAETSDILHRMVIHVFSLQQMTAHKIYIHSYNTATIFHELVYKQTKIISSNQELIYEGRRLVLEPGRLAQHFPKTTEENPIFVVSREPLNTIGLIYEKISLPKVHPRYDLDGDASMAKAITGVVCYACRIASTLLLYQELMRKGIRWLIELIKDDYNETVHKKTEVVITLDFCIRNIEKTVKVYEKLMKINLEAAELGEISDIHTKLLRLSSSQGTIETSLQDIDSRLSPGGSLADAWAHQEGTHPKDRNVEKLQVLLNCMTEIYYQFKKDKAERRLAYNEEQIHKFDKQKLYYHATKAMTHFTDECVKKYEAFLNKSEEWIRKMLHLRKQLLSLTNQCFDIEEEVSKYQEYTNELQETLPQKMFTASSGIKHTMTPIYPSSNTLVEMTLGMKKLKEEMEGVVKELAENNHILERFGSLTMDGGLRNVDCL

`Cc1nccn1Cc1ccc(Nc2nccc(-c3cnc(N4CC[C@H](F)C4)c(C#N)c3)n2)cn1` [DMX-81, 2-((S)-3-Fluoro-pyrrolidin-1-yl)-5-{2-[6-(2-methyl-imidazol-1-ylmethyl)-pyridin-3-ylamino]-pyrimidin-4-yl}-nicotinonitrile]: the pIC50 at IKKε and at TBK1 was above 7.52 each time.

As for `COCCN(C)Cc1ccc(Nc2nccc(-c3cnc(N4CC[C@H](F)C4)c(C#N)c3)n2)cn1` [DMX-82, 2-((S)-3-Fluoro-pyrrolidin-1-yl)-5-[2-(6-{[(2-methoxy-ethyl)-methyl-amino]-methyl}-pyridin-3-ylamino)-pyrimidin-4-yl]-nicotinonitrile], the pIC50 on IKKε and on TBK1 was above 7.00 each time.

As for `COC1CN(Cc2ccc(Nc3nccc(-c4cnc(N5CC[C@H](F)C5)c(C#N)c4)n3)cn2)C1` [DMX-83, 2-((S)-3-Fluoro-pyrrolidin-1-yl)-5-{2-[6-(3-methoxy-azetidin-1-ylmethyl)-pyridin-3-ylamino]-pyrimidin-4-yl}-nicotinonitrile], the pIC50 on IKKε and on TBK1 was above 7.52 throughout.

Turning to `N#Cc1cc(-c2ccnc(Nc3ccc(CN4CCOCC4)nc3)n2)cnc1N1CCCOCC1` [DMX-84, 5-[2-(6-Morpholin-4-ylmethyl-pyridin-3-ylamino)-pyrimidin-4-yl]-2-[1,4]oxazepan-4-yl-nicotinonitrile], the pIC50 on IKKε and on TBK1 was above 7.00 throughout.

As for `N#Cc1cc(-c2ccnc(Nc3ccc(NC(=O)CN4CCOCC4)nc3)n2)cnc1N1CCCOCC1` [DMX-85, N-{5-[4-(5-Cyano-6-[1,4]oxazepan-4-yl-pyridin-3-yl)-pyrimidin-2-ylamino]-pyridin-2-yl}-2-morpholin-4-yl-acetamide], the pIC50 on IKKε and at TBK1 was above 7.00 in each case.

In the case of `N#Cc1cc(-c2nc(Nc3ccc(NC(=O)CN4CCOCC4)nc3)ncc2F)cnc1N1CCCOCC1` [DMX-86, N-{5-[4-(5-Cyano-6-[1,4]oxazepan-4-yl-pyridin-3-yl)-5-fluoro-pyrimidin-2-ylamino]-pyridin-2-yl}-2-morpholin-4-yl-acetamide], the pIC50 – broadly, the IC50 on a negative log10 scale, so that one unit is a factor of ten – was above 6.00 at IKKε and above 7.00 at TBK1.

For the compound `N#Cc1cc(-c2nc(Nc3ccc(CN4CCOCC4)nc3)ncc2F)cnc1N1CCCOCC1` [DMX-87, 5-[5-Fluoro-2-(6-morpholin-4-ylmethyl-pyridin-3-ylamino)-pyrimidin-4-yl]-2-[1,4]oxazepan-4-yl-nicotinonitrile], the pIC50 on IKKε and at TBK1 was above 7.00 in each case.

Consider `N#Cc1cc(-c2nc(Nc3ccc(NC(=O)CN4CCOCC4)nc3)ncc2F)cnc1N1CC[C@H](F)C1` [DMX-88, N-(5-{4-[5-Cyano-6-((S)-3-fluoro-pyrrolidin-1-yl)-pyridin-3-yl]-5-fluoro-pyrimidin-2-ylamino}-pyridin-2-yl)-2-morpholin-4-yl-acetamide], for which the pIC50 at IKKε and on TBK1 was above 7.00 in each case.

`N#Cc1cc(-c2nc(Nc3ccc(CN4CCOCC4)nc3)ncc2F)cnc1N1CC[C@H](F)C1` [DMX-89, 5-[5-Fluoro-2-(6-morpholin-4-ylmethyl-pyridin-3-ylamino)-pyrimidin-4-yl]-2-((S)-3-fluoro-pyrrolidin-1-yl)-nicotinonitrile]: the values for the pIC50 on IKKε and on TBK1 were above 7.52 and above 7.82, respectively.

Turning to `N#Cc1cc(-c2ccnc(Nc3ccc(CN4CCOCC4)nc3)n2)cnc1N1CCC2(COC2)C1` [DMX-92, 5-[2-(6-Morpholin-4-ylmethyl-pyridin-3-ylamino)-pyrimidin-4-yl]-2-(2-oxa-6-aza-spiro[3.4]oct-6-yl)-nicotinonitrile], the negative-log IC50 (pIC50) at IKKε is above 7.52; at TBK1 it was above 7.00.

Consider `N#Cc1cc(-c2ccnc(Nc3ccnc(NC(=O)CN4CCOCC4)c3)n2)cnc1N1CCC2(COC2)C1` [DMX-93, N-(4-{4-[5-Cyano-6-(2-oxa-6-aza-spiro[3.4]oct-6-yl)-pyridin-3-yl]-pyrimidin-2-ylamino}-pyridin-2-yl)-2-morpholin-4-yl-acetamide], for which the negative logarithm of the IC50 (pIC50) at IKKε and on TBK1 was above 7.00 each time.

`N#Cc1cc(-c2nc(Nc3ccnc(NC(=O)CN4CCOCC4)c3)ncc2F)cnc1N1CCCOCC1` [DMX-94, N-{4-[4-(5-Cyano-6-[1,4]oxazepan-4-yl-pyridin-3-yl)-5-fluoro-pyrimidin-2-ylamino]-pyridin-2-yl}-2-morpholin-4-yl-acetamide]: the pIC50 on IKKε was above 6.00; on TBK1 it was above 7.00.

`COCCNc1cc(Nc2ncc(F)c(-c3cnc(N4CCCOCC4)c(C#N)c3)n2)ccn1` [DMX-95, 5-{5-Fluoro-2-[2-(2-methoxy-ethylamino)-pyridin-4-ylamino]-pyrimidin-4-yl}-2-[1,4]oxazepan-4-yl-nicotinonitrile]: the pIC50 was above 6.00 at IKKε and above 7.00 at TBK1.

For `CC(c1ccc(Nc2nccc(-c3cnc(N4CC[C@H](F)C4)c(C#N)c3)n2)cn1)N1CCOCC1` (stereo partly drawn) [DMX-96, 2-((S)-3-Fluoro-pyrrolidin-1-yl)-5-{2-[6-(1-morpholin-4-yl-ethyl)-pyridin-3-ylamino]-pyrimidin-4-yl}-nicotinonitrile], the pIC50 at IKKε was above 7.52; at TBK1, above 7.82.

Consider `CO[C@H]1CCN(Cc2ccc(Nc3nccc(-c4cnc(N5CC[C@H](F)C5)c(C#N)c4)n3)cn2)C1` [DMX-97, 2-((S)-3-Fluoro-pyrrolidin-1-yl)-5-{2-[6-((S)-3-methoxy-pyrrolidin-1-ylmethyl)-pyridin-3-ylamino]-pyrimidin-4-yl}-nicotinonitrile], for which the pIC50 was above 7.00 at IKKε and above 7.52 on TBK1.

Take `CS(=O)(=O)CCNCc1ccc(Nc2nccc(-c3cnc(N4CC[C@H](F)C4)c(C#N)c3)n2)cn1` [DMX-98, 2-((S)-3-Fluoro-pyrrolidin-1-yl)-5-(2-{6-[(2-methanesulfonyl-ethylamino)-methyl]-pyridin-3-ylamino}-pyrimidin-4-yl)-nicotinonitrile]: the pIC50 on IKKε and on TBK1 was above 7.52 throughout.

Regarding `N#Cc1cc(-c2ccnc(Nc3ccnc(CN4CCOCC4)c3)n2)cnc1N1CC[C@H](F)C1` [DMX-99, 2-((S)-3-Fluoro-pyrrolidin-1-yl)-5-[2-(2-morpholin-4-ylmethyl-pyridin-4-ylamino)-pyrimidin-4-yl]-nicotinonitrile], the pIC50 at IKKε is above 7.52; on TBK1, above 7.82.

As to `N#Cc1cc(-c2ccnc(Nc3cncc(CN4CCOCC4)c3)n2)cnc1N1CC[C@H](F)C1` [DMX-100, 2-((S)-3-Fluoro-pyrrolidin-1-yl)-5-[2-(5-morpholin-4-ylmethyl-pyridin-3-ylamino)-pyrimidin-4-yl]-nicotinonitrile], the pIC50 on IKKε and at TBK1 was above 7.52 in each case.

Regarding `CN(CCO)c1cc(Nc2nccc(-c3cnc(N4CC[C@H](F)C4)c(C#N)c3)n2)ccn1` [DMX-101, 2-((S)-3-Fluoro-pyrrolidin-1-yl)-5-(2-{2-[(2-hydroxy-ethyl)-methyl-amino]-pyridin-4-ylamino}-pyrimidin-4-yl)-nicotinonitrile], the pIC50 at IKKε and on TBK1 was above 7.52 throughout.

Take `N#Cc1cc(-c2ccnc(Nc3ccc(CN4CCNC(=O)C4)nc3)n2)cnc1N1CC[C@H](F)C1` [DMX-102, 2-((S)-3-Fluoro-pyrrolidin-1-yl)-5-{2-[6-(3-oxo-piperazin-1-ylmethyl)-pyridin-3-ylamino]-pyrimidin-4-yl}-nicotinonitrile]: the pIC50 at IKKε and on TBK1 was above 7.82 each time.

With `N#Cc1cc(-c2ccnc(Nc3ccc(CN4CCCOCC4)nc3)n2)cnc1N1CC[C@H](F)C1` [DMX-103, 2-((S)-3-Fluoro-pyrrolidin-1-yl)-5-[2-(6-[1,4]oxazepan-4-ylmethyl-pyridin-3-ylamino)-pyrimidin-4-yl]-nicotinonitrile], the pIC50 at IKKε and on TBK1 was above 7.00 throughout.

With `CN(CCO)Cc1ccc(Nc2nccc(-c3cnc(N4CC[C@H](F)C4)c(C#N)c3)n2)cn1` [DMX-104, 2-((S)-3-Fluoro-pyrrolidin-1-yl)-5-[2-(6-{[(2-hydroxy-ethyl)-methyl-amino]-methyl}-pyridin-3-ylamino)-pyrimidin-4-yl]-nicotinonitrile], the pIC50 at IKKε and on TBK1 was above 7.00 throughout.

Take `COCCNCc1cncc(Nc2nccc(-c3cnc(N4CC[C@H](F)C4)c(C#N)c3)n2)c1` [DMX-106, 2-((S)-3-Fluoro-pyrrolidin-1-yl)-5-(2-{5-[(2-methoxy-ethylamino)-methyl]-pyridin-3-ylamino}-pyrimidin-4-yl)-nicotinonitrile]: the negative logarithm of the IC50 (pIC50) on IKKε and at TBK1 was above 7.00 in each case.

For the compound `N#Cc1cc(-c2ccnc(Nc3cncc(NC(=O)CN4CCOCC4)c3)n2)cnc1N1CC[C@H](F)C1` [DMX-108, N-(5-{4-[5-Cyano-6-((S)-3-fluoro-pyrrolidin-1-yl)-pyridin-3-yl]-pyrimidin-2-ylamino}-pyridin-3-yl)-2-morpholin-4-yl-acetamide], the pIC50 was above 7.00 at IKKε and above 7.52 at TBK1.

On to `N#Cc1cc(-c2ccnc(Nc3cnc4c(c3)CNC4)n2)cnc1N1CC[C@H](F)C1` [DMX-109, 5-[2-(6,7-Dihydro-5H-pyrrolo[3,4-b]pyridin-3-ylamino)-pyrimidin-4-yl]-2-((S)-3-fluoro-pyrrolidin-1-yl)-nicotinonitrile], for which the pIC50 at IKKε was above 7.52; on TBK1, above 7.00.

`CC1(O)CN(Cc2ccc(Nc3nccc(-c4cnc(N5CC[C@H](F)C5)c(C#N)c4)n3)cn2)C1` [DMX-110, 2-((S)-3-Fluoro-pyrrolidin-1-yl)-5-{2-[6-(3-hydroxy-3-methyl-azetidin-1-ylmethyl)-pyridin-3-ylamino]-pyrimidin-4-yl}-nicotinonitrile]: the pIC50 is above 7.52 on IKKε and above 7.00 on TBK1.

As to `N#Cc1cc(-c2ccnc(Nc3ccnc(NC(=O)CN4CCOCC4)c3)n2)cnc1N1CC[C@@H](F)C1` [DMX-111, N-(4-{4-[5-Cyano-6-((R)-3-fluoro-pyrrolidin-1-yl)-pyridin-3-yl]-pyrimidin-2-ylamino}-pyridin-2-yl)-2-morpholin-4-yl-acetamide], the results for the pIC50 at IKKε and on TBK1 were above 7.52 and above 7.82, respectively.

Values taken from US9433622B2, “Pyrimidine compounds useful in the treatment of diseases mediated by IKKE and/or TBK1 mechanisms” (DOMAINEX LIMITED, priority 2013, dated 2016).
